Measurements: patent publication EP2987533B1, “7-substituted piperazin-1-yl fluoroquinolone compounds, their use in the treatment of cancer, pharmaceutical compositions and a method for preparation” (priority 2014, dated 2016)

Tests used:
NCI/ADR-RES = experiment: NCI one-dose SRB growth assay; assay type: cell-based; details: Homo sapiens; NCI/ADR-RES (Ovarian Cancer), 10^-5 M, 48 h; read-out: % Growth Inhibition (GI %)
Procedure: (§1) A primary anticancer assay was performed for an approximately 60 human tumor cell line panel derived from nine neoplastic diseases, in accordance with the protocol of the Drug Evaluation Branch, National Cancer Institute, Bethesda, MD (Monks A. et al., J. Natl. Cancer Inst 1991, 83, 757-766; Boyd M.R. and Paull K.D., Drug. Dev. Res. 1995, 34, 91-109; Shoemaker R.H., Nat. Rev. Cancer 2006, 6, 813-823). Briefly, tested compounds were added to the culture at a single concentration (10^-5M), and the cultures were incubated for 48 h. End point determinations were made with a protein binding dye, sulforhodamine B (SRB). The results for each tested compound were reported as the growth percentage of the treated cells when compared to that of the untreated control cells. The percentage growth was evaluated spectrophotometrically versus controls not treated with test agents.

DU-145 = experiment: NCI one-dose SRB growth assay; assay type: cell-based; details: Homo sapiens; DU-145 (Prostate Cancer), 10^-5 M, 48 h; read-out: % Growth Inhibition (GI %)
Procedure: as §1

786-0 = experiment: NCI one-dose SRB growth assay; assay type: cell-based; details: Homo sapiens; 786-0 (Renal Cancer), 10^-5 M, 48 h; read-out: % Growth Inhibition (GI %)
Procedure: as §1

SF-295 = experiment: NCI one-dose SRB growth assay; assay type: cell-based; details: Homo sapiens; SF-295 (CNS Cancer), 10^-5 M, 48 h; read-out: % Growth Inhibition (GI %)
Procedure: as §1

HOP-92 = experiment: NCI one-dose SRB growth assay; assay type: cell-based; details: Homo sapiens; HOP-92 (Non-Small Cell Lung Cancer), 10^-5 M, 48 h; read-out: % Growth Inhibition (GI %)
Procedure: as §1

RXF 393 = experiment: NCI one-dose SRB growth assay; assay type: cell-based; details: Homo sapiens; RXF 393 (Renal Cancer), 10^-5 M, 48 h; read-out: % Growth Inhibition (GI %)
Procedure: as §1

SK-MEL-5 = experiment: NCI one-dose SRB growth assay; assay type: cell-based; details: Homo sapiens; SK-MEL-5 (Melanoma), 10^-5 M, 48 h; read-out: % Growth Inhibition (GI %)
Procedure: as §1

MCF7 = experiment: NCI one-dose SRB growth assay; assay type: cell-based; details: Homo sapiens; MCF7 (Breast Cancer), 10^-5 M, 48 h; read-out: % Growth Inhibition (GI %)
Procedure: as §1

PC-3 = experiment: NCI one-dose SRB growth assay; assay type: cell-based; details: Homo sapiens; PC-3 (Prostate Cancer), 10^-5 M, 48 h; read-out: % Growth Inhibition (GI %)
Procedure: as §1

U251 = experiment: NCI one-dose SRB growth assay; assay type: cell-based; details: Homo sapiens, U-251; U251 (CNS Cancer), 10^-5 M, 48 h; read-out: % Growth Inhibition (GI %)
Procedure: as §1

HT29 = experiment: NCI one-dose SRB growth assay; assay type: cell-based; details: Homo sapiens, HT-29; HT29 (Colon Cancer), 10^-5 M, 48 h; read-out: % Growth Inhibition (GI %)
Procedure: as §1

NCI-H460 = experiment: NCI one-dose SRB growth assay; assay type: cell-based; details: Homo sapiens; NCI-H460 (Non-Small Cell Lung Cancer), 10^-5 M, 48 h; read-out: % Growth Inhibition (GI %)
Procedure: as §1

OVCAR-8 = experiment: NCI one-dose SRB growth assay; assay type: cell-based; details: Homo sapiens; OVCAR-8 (Ovarian Cancer), 10^-5 M, 48 h; read-out: % Growth Inhibition (GI %)
Procedure: as §1

NCI-H23 = experiment: NCI one-dose SRB growth assay; assay type: cell-based; details: Homo sapiens; NCI-H23 (Non-Small Cell Lung Cancer), 10^-5 M, 48 h; read-out: % Growth Inhibition (GI %)
Procedure: as §1

KM12 = experiment: NCI one-dose SRB growth assay; assay type: cell-based; details: Homo sapiens; KM12 (Colon Cancer), 10^-5 M, 48 h; read-out: % Growth Inhibition (GI %)
Procedure: as §1

OVCAR-4 = experiment: NCI one-dose SRB growth assay; assay type: cell-based; details: Homo sapiens; OVCAR-4 (Ovarian Cancer), 10^-5 M, 48 h; read-out: % Growth Inhibition (GI %)
Procedure: as §1

MDA-MB-435 = experiment: NCI one-dose SRB growth assay; assay type: cell-based; details: Homo sapiens; MDA-MB-435 (Melanoma), 10^-5 M, 48 h; read-out: % Growth Inhibition (GI %)
Procedure: as §1

A498 = experiment: NCI one-dose SRB growth assay; assay type: cell-based; details: Homo sapiens; A498 (Renal Cancer), 10^-5 M, 48 h; read-out: % Growth Inhibition (GI %)
Procedure: as §1

SNB-19 = experiment: NCI one-dose SRB growth assay; assay type: cell-based; details: Homo sapiens; SNB-19 (CNS Cancer), 10^-5 M, 48 h; read-out: % Growth Inhibition (GI %)
Procedure: as §1

SF-539 = experiment: NCI one-dose SRB growth assay; assay type: cell-based; details: Homo sapiens; SF-539 (CNS Cancer), 10^-5 M, 48 h; read-out: % Growth Inhibition (GI %)
Procedure: as §1

PRMI-8226 = experiment: NCI one-dose SRB growth assay; assay type: cell-based; details: Homo sapiens; PRMI-8226 (Leukemia), 10^-5 M, 48 h; read-out: % Growth Inhibition (GI %)
Procedure: as §1

COLO 205 = experiment: NCI one-dose SRB growth assay; assay type: cell-based; details: Homo sapiens; COLO 205 (Colon Cancer), 10^-5 M, 48 h; read-out: % Growth Inhibition (GI %)
Procedure: as §1

CAKI-1 = experiment: NCI one-dose SRB growth assay; assay type: cell-based; details: Homo sapiens; CAKI-1 (Renal Cancer), 10^-5 M, 48 h; read-out: % Growth Inhibition (GI %)
Procedure: as §1

UACC-257 = experiment: NCI one-dose SRB growth assay; assay type: cell-based; details: Homo sapiens; UACC-257 (Melanoma), 10^-5 M, 48 h; read-out: % Growth Inhibition (GI %)
Procedure: as §1

SN12C = experiment: NCI one-dose SRB growth assay; assay type: cell-based; details: Homo sapiens; SN12C (Renal Cancer), 10^-5 M, 48 h; read-out: % Growth Inhibition (GI %)
Procedure: as §1

[1] = tested on: full panel of about 60 human tumor cell lines; experiment: NCI five-dose SRB assay, full panel mean; details: 48 h; for CC50 / GI50: Homo sapiens; for CC50: 60 cell, read-out: LC50 MG-MID (Full panel mean-graph midpoint); for GI50: read-out: GI50 MG-MID (Full panel mean-graph midpoint); for TGI MG-MID (Full panel mean-graph midpoint): five concentrations

## Cc1cc(C)c(S(=O)(=O)N2CCN(c3cc4c(cc3F)c(=O)c(C(=O)O)cn4C3CC3)CC2)c(C)c1 [Compound 6b]
NCI/ADR-RES
  inhibition at 10 µM: 30.1%
DU-145
  inhibition at 10 µM: 28.6%
786-0
  inhibition at 10 µM: 24.4%
SF-295
  inhibition at 10 µM: 66.8%
HOP-92
  inhibition at 10 µM: 53.1%
RXF 393
  inhibition at 10 µM: 48.7%
SK-MEL-5
  inhibition at 10 µM: 45.1%
MCF7
  inhibition at 10 µM: 46%
PC-3
  inhibition at 10 µM: 32.1%
U251
  inhibition at 10 µM: 80.3%
HT29
  inhibition at 10 µM: 71.7%
NCI-H460
  inhibition at 10 µM: 60.5%
OVCAR-8
  inhibition at 10 µM: 40.5%
NCI-H23
  inhibition at 10 µM: 42.6%
KM12
  inhibition at 10 µM: 39.3%
OVCAR-4
  inhibition at 10 µM: 24.4%
MDA-MB-435
  inhibition at 10 µM: 23.9%
A498
  inhibition at 10 µM: 37%
SNB-19
  inhibition at 10 µM: 33.7%
SF-539
  inhibition at 10 µM: 53.5%
PRMI-8226
  inhibition at 10 µM: 77.7%
COLO 205
  inhibition at 10 µM: 42.4%
CAKI-1
  inhibition at 10 µM: 32.9%
UACC-257
  inhibition at 10 µM: 13.1%
SN12C
  inhibition at 10 µM: 86.1%
[1]
  CC50: > 100 µM
  GI50: 3.01 µM
  TGI MG-MID (Full panel mean-graph midpoint): 89.12 µM

## CCn1cc(C(=O)O)c(=O)c2cc(F)c(N3CCN(S(=O)(=O)c4cccc5ccccc45)CC3)cc21 [Compound 7a]
NCI/ADR-RES
  inhibition at 10 µM: 78.7%
DU-145
  inhibition at 10 µM: 81.1%
786-0
  inhibition at 10 µM: 75.7%
SF-295
  inhibition at 10 µM: 92.3%
HOP-92
  inhibition at 10 µM: > 100%
RXF 393
  inhibition at 10 µM: 71%
SK-MEL-5
  inhibition at 10 µM: > 100%
MCF7
  inhibition at 10 µM: 85.4%
PC-3
  inhibition at 10 µM: 92.2%
U251
  inhibition at 10 µM: 85.8%
HT29
  inhibition at 10 µM: 96%
NCI-H460
  inhibition at 10 µM: 92%
OVCAR-8
  inhibition at 10 µM: 91.6%
NCI-H23
  inhibition at 10 µM: 99.9%
KM12
  inhibition at 10 µM: 88.3%
OVCAR-4
  inhibition at 10 µM: 76.2%
MDA-MB-435
  inhibition at 10 µM: 88.6%
A498
  inhibition at 10 µM: > 100%
SNB-19
  inhibition at 10 µM: 71.2%
SF-539
  inhibition at 10 µM: 82.6%
PRMI-8226
  inhibition at 10 µM: 93.5%
COLO 205
  inhibition at 10 µM: > 100%
CAKI-1
  inhibition at 10 µM: 99.1%
UACC-257
  inhibition at 10 µM: 86%
SN12C
  inhibition at 10 µM: 88.1%
[1]
  CC50: 95.5 µM
  GI50: 3.09 µM
  TGI MG-MID (Full panel mean-graph midpoint): 29.51 µM
